pIC50: −log10 of the molar value. Bounds are passed on as bounds.

Assay [1] has as its system A431 cells [human epidermoid carcinoma, overexpressing HER1 (EGFR, ErbB1)]. In words: In vitro tumor cell proliferation assay (Cell Titer-Glo luminescent cell viability), A431 cells. Format: cell-based. Conditions: A-431, 72 h, 72 hours of drug exposure, Cell Titer-Glo readout, read-out: IC50, anti-proliferative activity in A431 cells. On the technique in general: ATP-based viability assays read luminescence as a measure of living cells.

Assay [2] relates to BT474 [human breast carcinoma, overexpressing HER2 (ErbB2)]. In words: In vitro tumor cell proliferation assay (Cell Titer-Glo luminescent cell viability), BT474 cells. Conditions: BT-474, 72 h, 72 hours of drug exposure, Cell Titer-Glo readout, read-out: IC50, anti-proliferative activity in BT474 cells. The assay is classed as cell-based.

For the molecule `OC[C@@H](O)c1ccc2c(c1)sc1ncnc(Nc3ccc4c(cnn4Cc4cccc(F)c4)c3)c12` [Example 116, (1S)-1-(4-{[1-(3-fluorobenzyl)-1H-indazol-5-yl]amino}[1]benzothieno [2,3-d]pyrimidin-7-yl)ethane-1,2-diol], the negative logarithm of the IC50 (pIC50) (as a rule, the IC50 on a negative log10 scale, so that one unit is a factor of ten) is at least 5.30 in assay [1] and at least 6.30 in assay [2].

Values taken from patent US7750017B2, “Heterocycles” (Bayer Schering Pharma Aktiengesellschaft, priority 2004, dated 2010).
